# In patent US8415482B2, “Proline derivatives” (National Health Research Institutes, priority 2009, dated 2013):
# Tested on: HCV replication
# Assay: Inhibiting HCV replication, Ava5-EG(Δ4AB)SEAP reporter-based cell line, SEAP activity
# Conditions: Hepatitis C virus, 72 h, Ava5-EG(Δ4AB)SEAP cells; 48 hours + additional 24 hours treatment; SEAP activity in culture medium; read-out: EC50 values (i.e., the concentration of a test compound at which 50% HCV replication is inhibited)
# Experimental: The inhibitory activity of compounds of this invention against HCV replication was assessed using Ava5-EG(Δ4AB)SEAP, a reporter-based cell line, according to the methods described in Lee et al., Anal. Biochem., 316:162-70 (2003) and Lee et al., J. Virol Methods, 116:27-33 (2004). Briefly, Ava5-EG(Δ4AB)SEAP cells were cultured in a medium containing 500 μg/mL G418 (geneticin) and 10 μg/mL blasticidin in a 5% CO2 incubator. G418 and blasticidin were purchased from Invitrogen (Carlsbad, Calif.). The cells were seeded in a 96-well plate (5×10^3 cells/100 μL-well) and incubated at 37° C. for 24 hours. They were then treated with a solution of a test compound in DMSO at various concentrations. After 48 hours, the culture medium in each well was replaced with a fresh medium containing the test compound at the same concentrations to remove secreted alkaline phosphatase (SEAP) accumulated in the culture medium, if any. The cells were cultured for additional 24 hours. The culture medium was then collected and tested for SEAP activity using a Phospha-Light assay kit (Tropix, Foster, Calif., USA).
row,Compound,EC50
1,CC(C)(C)OC(=O)N[C@@H](C(=O)N1CCC[C@H]1c1nc(-c2ccc(-c3ccc(-c4noc([C@@H]5CCCN5C(=O)[C@H](NC(=O)OC(C)(C)C)c5ccccc5)n4)cc3)cc2)c[nH]1)c1ccccc1 [Compound 25a],≤ 500 nM
2,O=C(N[C@@H](C(=O)N1CCC[C@H]1c1ncc(-c2ccc(-c3ccc(-c4cnc([C@@H]5CCCN5C(=O)[C@H](NC(=O)N5CCOCC5)c5ccccc5)s4)cc3)cc2)s1)c1ccccc1)N1CCOCC1 [Compound 7a-B],≤ 500 nM
3,O=C(N[C@@H](C(=O)N1CCC[C@H]1c1ncc(-c2ccc(-c3ccc(-c4cnc([C@@H]5CCCN5C(=O)[C@H](NC(=O)C5CCCCC5)c5ccccc5)s4)cc3)cc2)s1)c1ccccc1)C1CCCCC1 [Compound 70a],≤ 500 nM
4,"CC(C)(C)OC(=O)N[C@@H](C(=O)N1CCC[C@H]1c1ncc(-c2ccc(-c3ccc(-c4cnc([C@@H]5CCCN5C(=O)[C@H](NC(=O)OC(C)(C)C)c5ccccc5)s4)cc3)cc2)s1)c1ccccc1 [Compound 6a, di-tert-butyl (1R,1′R)-2,2′-((2S,2′S)-2,2′-(5,5′-(biphenyl-4,4′-diyl)bis(thiazole-5,2-diyl))bis(pyrro-lidine-2,1-diyl))bis(2-oxo-1-phenylethane-2,1-diyl)dicarbamate]",≤ 500 nM
5,O=C(N[C@@H](C(=O)N1C[C@H](F)C[C@H]1c1ncc(-c2ccc(-c3ccc(-c4cnc([C@@H]5C[C@@H](F)CN5C(=O)[C@H](NC(=O)N5CCOCC5)c5ccccc5)s4)cc3)cc2)s1)c1ccccc1)N1CCOCC1 [Compound 7b-B],≤ 500 nM
6,CC(C)(C)OC(=O)N[C@@H](C(=O)N1CCC[C@H]1c1nc(-c2ccc(-c3ccc(-c4cnc([C@@H]5CCCN5C(=O)[C@H](NC(=O)OC(C)(C)C)c5ccccc5)s4)cc3)cc2)cs1)c1ccccc1 [Compound 45a],≤ 500 nM
7,O=C(N[C@@H](C(=O)N1CCC[C@H]1c1nc(-c2ccc(-c3ccc(-c4cnc([C@@H]5CCCN5C(=O)[C@H](NC(=O)C5CC5)c5ccccc5)s4)cc3)cc2)no1)c1ccccc1)C1CC1 [Compound 34a],≤ 500 nM
8,O=C(N[C@@H](C(=O)N1C[C@@H](F)C[C@H]1c1ncc(-c2ccc(-c3ccc(-c4cnc([C@@H]5C[C@H](F)CN5C(=O)[C@H](NC(=O)C5CC5)c5ccccc5)s4)cc3)cc2)s1)c1ccccc1)C1CC1 [Compound 7c-A],≤ 500 nM
9,O=C(N[C@@H](C(=O)N1C[C@H](F)C[C@H]1c1ncc(-c2ccc(-c3ccc(-c4cnc([C@@H]5C[C@@H](F)CN5C(=O)[C@H](NC(=O)C5CC5)c5ccccc5)s4)cc3)cc2)s1)c1ccccc1)C1CC1 [Compound 7b-A],≤ 500 nM
10,CCCCCC(=O)N[C@@H](C(=O)N1CCC[C@H]1c1ncc(-c2ccc(-c3ccc(-c4cnc([C@@H]5CCCN5C(=O)[C@H](NC(=O)CCCCC)c5ccccc5)s4)cc3)cc2)s1)c1ccccc1 [Compound 58a],≤ 500 nM
11,O=C(N[C@@H](C(=O)N1CCC[C@H]1c1ncc(-c2ccc(-c3ccc(-c4cnc([C@@H]5CCCN5C(=O)[C@H](NC(=O)c5ccco5)c5ccccc5)s4)cc3)cc2)s1)c1ccccc1)c1ccco1 [Compound 76a],≤ 500 nM
12,O=C(N[C@@H](C(=O)N1CCC[C@H]1c1nc(-c2ccc(-c3ccc(-c4cnc([C@@H]5CCCN5C(=O)[C@H](NC(=O)C5CC5)c5ccccc5)s4)cc3)cc2)cs1)c1ccccc1)C1CC1 [Compound 46a],≤ 500 nM
13,CC(C)(C)OC(=O)N[C@@H](C(=O)N1CCC[C@H]1c1ncc(-c2ccc(-c3ccc(-c4cnc([C@@H]5CCCN5C(=O)[C@H](NC(=O)OC(C)(C)C)c5ccccc5)s4)cc3)cc2)[nH]1)c1ccccc1 [Compound 41a],≤ 500 nM
14,"O=C(N[C@@H](C(=O)N1CCC[C@H]1c1ncc(-c2ccc(-c3ccc(-c4cnc([C@@H]5CCCN5C(=O)[C@H](NC(=O)C5CC5)c5ccccc5)s4)cc3)cc2)[nH]1)c1ccccc1)C1CC1 [Compound 42a, N—((R)-2-((S)-2-(5-(4′-(2-((S)-1-((R)-2-(cyclopropanecarboxamido)-2-phenylacetyl)pyrrolidin-2-yl)-1H-imidazol-4-yl)biphenyl-4-yl)thiazol-2-yl)pyrrolidin-1-yl)-2-oxo-1-phenyl-ethyl)cyclopropanecarboxamide]",≤ 500 nM
15,CC(=O)N[C@H](C(=O)N1CCC[C@H]1c1ncc(-c2ccc(-c3ccc(-c4cnc([C@@H]5CCCN5C(=O)[C@H](NC(C)=O)c5ccccc5)s4)cc3)cc2)s1)c1ccccc1 [Compound 51a],≤ 500 nM
16,O=C(N[C@@H](C(=O)N1CCC[C@H]1c1ncc(-c2ccc(-c3ccc(-c4cnc([C@@H]5CCCN5C(=O)[C@H](NC(=O)c5ccncc5)c5ccccc5)s4)cc3)cc2)s1)c1ccccc1)c1ccncc1 [Compound 84a],≤ 500 nM
17,CC(C)C(=O)N[C@H](C(=O)N1CCC[C@H]1c1ncc(-c2ccc(-c3ccc(-c4cnc([C@@H]5CCCN5C(=O)[C@H](NC(=O)C(C)C)c5ccccc5)s4)cc3)cc2)s1)c1ccccc1 [Compound 61a],≤ 500 nM
18,CC(C)(C)OC(=O)N[C@@H](C(=O)N1CCC[C@H]1c1ncc(-c2ccc(-c3ccc(-c4csc([C@@H]5CCCN5C(=O)[C@H](NC(=O)OC(C)(C)C)c5ccccc5)n4)cc3)cc2)[nH]1)c1ccccc1 [Compound 37a],≤ 500 nM
19,CC(C)(C)OC(=O)N[C@@H](C(=O)N1CCC[C@H]1c1nc(-c2ccc(-c3ccc(-c4cnc([C@@H]5CCCN5C(=O)[C@H](NC(=O)OC(C)(C)C)c5ccccc5)s4)cc3)cc2)no1)c1ccccc1 [Compound 33a],≤ 500 nM
20,O=C(N[C@@H](C(=O)N1CCC[C@H]1c1ncc(-c2ccc(-c3ccc(-c4csc([C@@H]5CCCN5C(=O)[C@H](NC(=O)C5CC5)c5ccccc5)n4)cc3)cc2)[nH]1)c1ccccc1)C1CC1 [Compound 38a],≤ 500 nM
21,O=C(N[C@@H](C(=O)N1CCC[C@H]1c1nc(-c2ccc(-c3ccc(-c4csc([C@@H]5CCCN5C(=O)[C@H](NC(=O)C5CC5)c5ccccc5)n4)cc3)cc2)no1)c1ccccc1)C1CC1 [Compound 30a],≤ 500 nM
22,O=C(Cc1ccccc1)N[C@@H](C(=O)N1CCC[C@H]1c1ncc(-c2ccc(-c3ccc(-c4cnc([C@@H]5CCCN5C(=O)[C@H](NC(=O)Cc5ccccc5)c5ccccc5)s4)cc3)cc2)s1)c1ccccc1 [Compound 74a],≤ 500 nM
23,CC(C)(C)OC(=O)N[C@@H](C(=O)N1CCC[C@H]1c1nc(-c2ccc(-c3ccc(-c4csc([C@@H]5CCCN5C(=O)[C@H](NC(=O)OC(C)(C)C)c5ccccc5)n4)cc3)cc2)no1)c1ccccc1 [Compound 29a],≤ 500 nM
24,O=C(N[C@@H](C(=O)N1CCC[C@H]1c1nc(-c2ccc(-c3ccc(-c4noc([C@@H]5CCCN5C(=O)[C@H](NC(=O)C5CC5)c5ccccc5)n4)cc3)cc2)c[nH]1)c1ccccc1)C1CC1 [Compound 26a],≤ 500 nM
25,"O=C(N[C@@H](C(=O)N1CCC[C@H]1c1ncc(-c2ccc(-c3ccc(-c4cnc([C@@H]5CCCN5C(=O)[C@H](NC(=O)C5CC5)c5ccccc5)s4)cc3)cc2)s1)c1ccccc1)C1CC1 [Compound 7a-A, N,N′-(1R,1′R)-2,2′-((2S,2′S)-2,2′-(5,5′-(biphenyl-4,4′-diyl)bis(thiazole-5,2-diyl))bis(pyrrolidine-2,1-diyl))bis(2-oxo-1-phenylethane-2,1-diyl)dicyclopropanecarboxamide]",≤ 500 nM
26,O=C(N[C@@H](C(=O)N1C[C@@H](F)C[C@H]1c1ncc(-c2ccc(-c3ccc(-c4cnc([C@@H]5C[C@H](F)CN5C(=O)[C@H](NC(=O)N5CCOCC5)c5ccccc5)s4)cc3)cc2)s1)c1ccccc1)N1CCOCC1 [Compound 7c-B],≤ 500 nM
27,O=C(N[C@H](C(=O)N1CCC[C@H]1c1ncc(-c2ccc(-c3ccc(-c4cnc([C@@H]5CCCN5C(=O)[C@H](NC(=O)C5CCC5)c5ccccc5)s4)cc3)cc2)s1)c1ccccc1)C1CCC1 [Compound 67a],≤ 500 nM
